Biological target: BAX (Homo sapiens, UniProt Q07812)
Type: biochemical

Sequence of BAX (Q07812 whole entry): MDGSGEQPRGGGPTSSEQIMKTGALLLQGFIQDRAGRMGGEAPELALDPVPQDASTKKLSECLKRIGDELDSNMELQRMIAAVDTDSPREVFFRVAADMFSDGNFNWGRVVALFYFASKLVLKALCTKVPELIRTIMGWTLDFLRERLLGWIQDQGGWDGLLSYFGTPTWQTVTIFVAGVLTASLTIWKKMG

## OC(CN1CCNCC1)Cn1c2ccccc2c2ccccc21 (stereo not shown) [BAI3]
  fold lower activity compared to BAI1: ~ 7 fold

Source: PMC6430685 (Nature chemical biology, 2019)
